Patent US20240239894A1, “THERAPEUTIC BINDING MOLECULES” (MedImmune Limited, priority 2020, published 2024)
Non-standard residues stand in square brackets, D forms with d. Residues, ends and D or L forms follow the SMILES beside them. *: point of attachment. Dolaproine = CO[C@@H]([C@@H]1CCCN1)[C@@H](C)C(=O)O; Dil = CC[C@H](C)[C@H](NC)[C@@H](CC(=O)O)OC; X1 = C[C@@H](N*)[C@@H](O)c1ccccc1; NMeV = CN[C@H](C(=O)O)C(C)C

How the values were obtained:
[1] = test system: DLD1 BRCA2−/− cells; assay: 6-day cytotoxicity assay of warheads; type: cell-based
Description: (§1) MMAE=negative control, microtubule-inhibitor warhead.
(§2) Additionally, HR-deficiency increases sensitivity to the SG3932 warhead. […] Cell viability was reduced in both wild-type and BRCA2−/− cells when treated with the MMAE warhead.

[2] = test system: DLD1 wt cells; assay: 6-day cytotoxicity assay of warheads; type: cell-based; conditions: wild-type cells
Description: as §1, §2

For `CC[C@H](C)[C@@H]([C@@H](CC(=O)N1CCC[C@H]1[C@H](OC)[C@@H](C)C(=O)N[C@H](C)[C@@H](O)c1ccccc1)OC)N(C)C(=O)[C@@H](NC(=O)[C@@H](NC)C(C)C)C(C)C` [MMAE] (H-[NMeV]V[Dil][Dolaproine]-X1), the cell viability [1] was “reduced” and the cell viability [2] was “reduced”.
